Consider one substance from patent US20130023051A1, “TECHNIQUES FOR TRANSFECTING PROTOPLASTS” (Keygene N.V., priority 2009, published 2013).

For this data set, the system named is mutated EGFP (mEGFP) in BY-2 protoplasts. In words: meGFP restoration in BY-2 protoplasts by oligonucleotide-mediated targeted gene repair (Example 3). Format: cell-based, tobacco. An excerpt: A tobacco Bright Yellow 2 cell suspension containing a non-functional EGFP gene was produced by introducing a point mutation in the chromophore region of the protein resulting in the formation of a premature stop codon. This line is used as reporter system to test the influence of various parameters on the repair of the EGFP gene by oligonucleotide-mediated targeted gene repair.
Five mL of a 7 d-old tobacco Bright Yellow 2 (BY-2) cell suspension culture weekly maintained in BY-2 culture medium (Nagata et al. 1999 Method Cell Sci) are transferred to a 50 mL Erlenmeyer flask containing 45 mL of BY-2 culture medium supplemented with 2 mM hydroxyurea. […] Live protoplasts are harvested and their density evaluated using a haemocytometer. […]
Tobacco protoplasts transfection is performed as for tomato protoplasts. […] To culture medium contained (per liter, pH 5.7) 950 mg KNO3, 825 mg NH4NO3, 220 mg CaCl2.2H2O, 185 mg MgSO4.7H2O, 85 mg KH2PO4, 27.85 mg FeSO4.7H2O, 37.25 mg Na2EDTA.2H2O, the micro-nutrients according to Heller's medium (Heller, R. 1953 Ann Sci Nat Bot Biol Veg), vitamins according to Morel and Wetmore's medium (Morel, G. and R. H. Wetmore 1951 Amer. J. Bot.), 2% (w/v) sucrose, 3 mg naphthalene acetic acid, 1 mg 6-benzylaminopurine and a quantity of mannitol to bring the osmolality to 540 mOsm·kg^−1 and transferred to a 35 mm Petri dish. […]

Regarding “repairing oligonucleotide: SEQ ID NO 8, T*G*A*A*CAGCTCCTCGCCCTTGC*T*C*A*C, phosphorothioate ends, one mismatch with the targeted sequence (DNA TGAACAGCTCCTCGCCCTTGCTCAC; DNA, linkages s4 o16 s4 (s phosphorothioate, o phosphodiester), methylation of C not given here)”, the “GFP positive protoplasts after 24 hours (/10^6)” value reads like this: (label = Day 1 / Day 2 treatment, oligonucleotide transfected at Day 2, dichlobenil 2 mg·L^−1 overnight, 2 mM hydroxyurea) 0 /10^6; (oligonucleotide transfected at Day 1, nothing at Day 2, 2 mM hydroxyurea) 0 /10^6.
